Values quoted from earlier work, collected in article PMC8198792, “Prediction of Anticancer Peptides with High Efficacy and Low Toxicity by Hybrid Model Based on 3D Structure of Peptides” (International Journal of Molecular Sciences, 2021).
Like-named read-outs stand apart in the source and are kept apart here.

Tested on: cancer cell lines
Set-up: method as in 6 sources, ref CancerPPD [45] and SATPdb ||| ref CancerPPD/SATPdb ||| ref CancerPPD, SATPdb, Swissprot (PDB) ||| ref CancerPPD/SATPdb/Swissprot(PDB) ||| ref CancerPPD / SATPdb ||| ...
Conditions: cited from earlier work
Text: Supplement ijms-22-05630-s001.zip/ACPs(seguence).xlsx, sheet "D1" | column: Activity || Supplement ijms-22-05630-s001.zip/ACPs(seguence).xlsx, sheet "D2" | column: Activity || Supplement ijms-22-05630-s001.zip/ACPs(seguence).xlsx, sheet "D3" | column: Activity || (+ 2 further places)

[1] = ACPs dataset D2 (supplement ACPs(seguence).xlsx, sheet D2), dataset label 1/0 (ACP / non-ACP), entries identified by Swissprot(PDB ID), ref CancerPPD/SATPdb/Swissprot(PDB)
[2] = ACPs dataset D5 (sheet "D5"), label 1 = ACP (positive set), 0 = non-ACP (negative set), ref CancerPPD [45] and SATPdb
[3] = ACPs dataset D3 (sheet "D3"), label 1 = ACP, 0 = non-ACP, ref CancerPPD/SATPdb
[4] = ACPs dataset D4 (sheet "D4"), label 1 = ACP, 0 = non-ACP, ref CancerPPD / SATPdb
[5] = ACPs dataset D5, sheet "D5", label 1 = ACP, 0 = non-ACP, ref CancerPPD [45] and SATPdb
[6] = ACPs dataset sheet D2, 1 = ACP (CancerPPD/SATPdb ID), 0 = non-ACP (Swissprot/PDB ID), ref CancerPPD, SATPdb, Swissprot (PDB)
[7] = ACPs dataset D1, 1 = ACP (positive), 0 = non-ACP (negative), label taken from databases, ref CancerPPD [45] and SATPdb
[8] = ACPs dataset D4 (sheet "D4"), label 1 = ACP, experimentally validated ACPs, ref CancerPPD [45] and SATPdb
[9] = ACPs dataset D5 (sheet "D5"), label 1 = ACP (positive set), sequences with CancerPPD/SATPdb ID, ref CancerPPD, SATPdb
[10] = ACPs dataset D4 (sheet "D4"), label 1 = ACP (CancerPPD ID), 0 = non-ACP (non-anticancer AMP, SATPdb ID), ref CancerPPD [45] and SATPdb
[11] = ACPs dataset D3 (supplement sheet "D3"), 1 = ACP, 0 = non-ACP, ref CancerPPD [45] and SATPdb
[12] = ACPs dataset D1, label 1 = ACP, 0 = non-ACP (non-anticancer AMPs from SATPdb), ref CancerPPD/SATPdb

MITDVQLAIFANMLGVSLFLLVVLYHYVAVNNPKKQE [2LAT NMR - A 1-37]
Activity [1]: 0 | Activity [2]: 0

FFPIVGKLLFGLL [satpdb13027]
Activity [3]: 0 | Activity [4]: 0 | Activity [5]: 0

MTEEMLYAALLSFGLIFVGWGLGVLLLKIQGAEKE [4I7Z X-ray 2.80,F,1-35]
Activity [2]: 0 | Activity [6]: 0

RCRLAERRQIAK [satpdb18274]
Activity [7]: 1 | Activity [8]: 1 | Activity [9]: 1 | Activity [6]: 1

ITPATPFTPAIITEITAAVIA [satpdb10693]
Activity [7]: 0 | Activity [10]: 0

GIGKFLHSAKKFGKAFVGEIMNS [compound 1116]
Activity [11]: 1 | Activity [10]: 1 | Activity [2]: 1

DGRKICLDPDAPRIKKIVQKKL [satpdb12249]
Activity [7]: 1 | Activity [8]: 1 | Activity [9]: 1 | Activity [6]: 1

KWKLFKKIPLKKF [compound 1122]
Activity [11]: 1 | Activity [10]: 1 | Activity [2]: 1

FAKLA [compound 1859]
Activity [11]: 1 | Activity [8]: 1 | Activity [9]: 1

NVLLSPLSVATALSALSLGAEQRTES [satpdb18073]
Activity [7]: 1 | Activity [8]: 1 | Activity [9]: 1 | Activity [6]: 1

GFLSILKKVLP [satpdb11215]
Activity [7]: 0 | Activity [10]: 0

TGASSEEEDPF [satpdb18128]
Activity [7]: 1 | Activity [8]: 1 | Activity [9]: 1 | Activity [6]: 1

MSAGVITGVLLVFLLLGYLVYALINAEAF [6HRA electron microscopy 3.70, D ,1-29]
Activity [2]: 0 | Activity [6]: 0

SLIPHAINAVSAIAKHF [satpdb12892]
Activity [3]: 0 | Activity [4]: 0 | Activity [5]: 0

GLFVGLAKVAAHNNPAIAEHFQA [compound 4390]
Activity [7]: 1 | Activity [8]: 1 | Activity [9]: 1 | Activity [6]: 1

KFPKFRRGIPFLFV [satpdb10093]
Activity [7]: 0 | Activity [10]: 0

GMWSKILGHLKR [compound 3637]
Activity [11]: 1 | Activity [10]: 1 | Activity [2]: 1

LSSTCILVLVKSTY [satpdb19063]
Activity [7]: 1 | Activity [8]: 1 | Activity [9]: 1 | Activity [6]: 1

FIHHIFRGIVHAGRSIGRFLTG [2MCW NMR - A 1-22]
Activity [2]: 0 | Activity [6]: 0

LLGMIPLAISAISALSKL [compound 4453]
Activity [7]: 1 | Activity [8]: 1 | Activity [9]: 1 | Activity [6]: 1

MESQSNAVQLMLGFGTFVLMLLGLVVELIKNSNKK [satpdb12625]
Activity [12]: 0 | Activity [10]: 0

DRSTREPIYMSTI [satpdb20500]
Activity [7]: 1 | Activity [8]: 1 | Activity [9]: 1 | Activity [6]: 1

INGSLDKRVQDCYHG [satpdb28376]
Activity [7]: 1 | Activity [8]: 1 | Activity [9]: 1 | Activity [6]: 1

MNQGKIWTVVNPAIGIPALLGSVTVIAILVHLAILSHTTWFPAYWQGGVKKAA [1KZU X-ray 2.50 A/D/G 1-53]
Activity [1]: 0 | Activity [5]: 0

TNYGNGVGVPDAIMAGIIKLIFIFNIRQGYNFGKKAT [satpdb11292]
Activity [7]: 0 | Activity [10]: 0

NGREACLDPEAPMVQKIVQKMLKG [satpdb14027]
Activity [7]: 1 | Activity [8]: 1 | Activity [9]: 1 | Activity [6]: 1

GMWSKILGHLIK [compound 3636]
Activity [11]: 1 | Activity [10]: 1 | Activity [2]: 1

GILDSFKQFAKGVGKDLIKGAAQGVLSTMSCKLAKTC [satpdb11305]
Activity [7]: 0 | Activity [10]: 0

ALLGDFFRKSKEKIGKEFKRIVQRIKDFLRNLVPRTES [satpdb12863]
Activity [12]: 0 | Activity [4]: 0

MLELLKSLVFAVIMVPVVMAIILGLIYGLGEVFNIFSGVGKKDQPGQNH [4C48 X-ray 3.30,C,1-49]
Activity [1]: 0 | Activity [2]: 0

NPEDWFTPDTCAYGDSNTAWTTCTTPGQTCYTCCSSCFDVVGEQACQMSAQC [2KC6 NMR - A 1-52]
Activity [1]: 0 | Activity [5]: 0

FKRiVQRiKDFlRNLV [compound 1530]
Activity [11]: 1 | Activity [8]: 1 | Activity [9]: 1

ILPFKFPFFPFRR [satpdb11203]
Activity [7]: 0 | Activity [10]: 0

GILDKLKEFGISAARGVAQSLLNTTASCKLAKTC [satpdb13132]
Activity [12]: 0 | Activity [4]: 0

AIGKFLHSAKKFGKAFVGEIMNS [compound 1041]
Activity [11]: 1 | Activity [8]: 1 | Activity [9]: 1

DKLIGSCVWGAVNYTSNCNAECKRRGYKGGHCGSFANVNCWCET [1OZZ NMR - A 1-44]
Activity [1]: 0 | Activity [2]: 0

KAYSTPRCKYLFRAVLCWL [satpdb14444]
Activity [3]: 0 | Activity [4]: 0 | Activity [5]: 0

FLPAVLRVAAQVVPTVFCAISKKC [satpdb11368]
Activity [7]: 0 | Activity [10]: 0

GSIPACGESCFKGKCYTPGCSCSKYPLCAKN [2GJ0 NMR - A 1-31]
Activity [2]: 0 | Activity [6]: 0

MATAVYRCAKCGKEVELDLATAREVRCPYCGSKILYKPRPRVARRVKAI [4QIW X-ray 3.50 P/W 1-49]
Activity [1]: 0 | Activity [2]: 0

GKWKSLLKHILK [compound 3653]
Activity [11]: 1 | Activity [10]: 1 | Activity [2]: 1

TAWGPCSTTCGLGMATRV [satpdb13892]
Activity [7]: 1 | Activity [8]: 1 | Activity [9]: 1 | Activity [6]: 1

ERRCPRILKQCKRDSDCPGECICMAHGFCG [1EWU model - I 1-30]
Activity [2]: 0 | Activity [6]: 0

PRFWEYWLRLAE [compound 4587]
Activity [7]: 1 | Activity [8]: 1 | Activity [9]: 1 | Activity [6]: 1

KNWKKILGKIIKVVK [compound 3509]
Activity [11]: 1 | Activity [10]: 1 | Activity [2]: 1

GIFGKILGAGKKVLCGLSGLC [satpdb11792]
Activity [12]: 0 | Activity [10]: 0

CENTISGCSRADCLLTHRKQGCQKTCGLC [5WCV NMR - A 1-29]
Activity [2]: 0 | Activity [6]: 0

CTTGPCCRQCKLKPAGTTCWKTSLTSHYCTGKSCDCPLYPG [1MPZ NMR - A 1-41]
Activity [1]: 0 | Activity [2]: 0

KWKLFKKIGIGKFLHSAKKF [compound 1204]
Activity [11]: 1 | Activity [10]: 1 | Activity [2]: 1

EIPSCESSASPDQSDSSVPPEE [satpdb17950]
Activity [7]: 1 | Activity [8]: 1 | Activity [9]: 1 | Activity [6]: 1

KWKIFKKIEHMGQNIRDGLIKAGPAVQVVGQAATIYKG [satpdb11253]
Activity [7]: 0 | Activity [10]: 0

LTAEHYAAQATS [compound 4580]
Activity [7]: 1 | Activity [8]: 1 | Activity [9]: 1 | Activity [6]: 1

KRRREKQRPCDKPRR [satpdb15198]
Activity [7]: 1 | Activity [8]: 1 | Activity [9]: 1 | Activity [6]: 1

ILPWKWPWWPWRR [compound 1827]
Activity [7]: 1 | Activity [8]: 1 | Activity [9]: 1 | Activity [6]: 1

FLGGLMKAFPAIICAVTKKC [satpdb13214]
Activity [12]: 0 | Activity [4]: 0

GCVLYPWC [2M6C NMR - A 1-8]
Activity [2]: 0 | Activity [6]: 0

ASFPWSCPSLSGVCRKVCLPTELFFGPLGCGKGFLCGVSHFL [satpdb13301]
Activity [12]: 0 | Activity [4]: 0

KKLFKKilkYL [satpdb14386]
Activity [3]: 0 | Activity [4]: 0 | Activity [5]: 0

KAAKKAWKAWKKAAKAAWKKAA [compound 4477]
Activity [7]: 1 | Activity [8]: 1 | Activity [9]: 1 | Activity [6]: 1

GFGMALRLLRRVL [compound 3598]
Activity [11]: 1 | Activity [10]: 1 | Activity [2]: 1

KLCERSSGTWSGVCGNNNACKNQCINLEGARHGSCNYVFPYHRCICYFPC [satpdb11142]
Activity [7]: 0 | Activity [10]: 0
